According to patent US20070105937A1, “Indole-3-propionamide and derivatives thereof” (priority 2003, published 2007):

How the values were obtained:
rotifers (Philodina) [1] = test: Synergistic effects on longevity of rotifers with ascorbate and trolox; type: in vivo; design: Maximum Life Span: unit not given here
Protocol: Ascorbate and trolox were administered at a concentration of 100 micromolar, the indoles were given at a concentration of 5 micromolar.

[2] = Time dependent indole levels in brain tissue after i.p. administration; type: in vivo, Sprague-Dawley rats; details: mean+SD, N=4
Protocol: Time dependent changes in indole levels in brain tissue (pg/mg protein) after administration of 0.5 mg/kg i.p. of drug in phosphate buffered saline to one month old male Sprague-Dawley rats (N=4 animals, mean+SD). Endogenous levels of melatonin in saline treated control animals were 25+10 pg/mg protein, endogenous levels of indolepropionate were 80+20 pg/mg protein. Significant amounts of endogenous IPAM in rat brain could not be detected. Brain tissue was homogenized 1:10 in phosphate buffer and extracted 1:1 with ethylacetate. Recovery for melatonin, indolepropionate and IPAM were 57+6, 69+12 and 80+4%. Indoles were measured by HPLC with electrochemical detection (20% methanol eluent, 990 mV oxidation potential, IPAM elutes at 18 minutes, melatonin at 21 minutes, indolepropionate at 36 minutes).

[3] = system: Hydroxyl Radical Mediated Oxidative Damage to DNA; test: Inhibition of hydroxyl radical mediated oxidative damage to DNA in rat forebrain homogenate (8-hydroxydeoxyguanosine formation); type: biochemical; details: 60 min with 3 mM hydrogen peroxide, 4 mM ferrous sulfate, 2 mM ADP; mean+SD, N=6; read-out: IC 50 (concentration to reduce oxidative DNA damage by 50%)
Protocol: Rat forebrain homogenate was incubated for sixty minutes with 3 mM hydrogen peroxide, 4 mM ferrous sulfate and 2 mM ADP to generate hydroxyl radicals. The concentrations of each indole compound to reduce oxidative DNA damage by 50%, the IC 50 values, are given as means+standard deviations for N=6 different determinations. The IC 50 values were calculated by running six experiments each at 10 increasing concentrations ranging from 0.01 to 100 micromolar of melatonin, indole-3-propionic acid and indole-3-propionamide. DNA damage was examined by measuring the formation of 8-hydroxydeoxyguanosine with HPLC and electrochemical detection in the presence and absence of the hydroxyl radical scavengers.

Aβ1-40 = target: T1, Aβ1-40 (Homo sapiens, UniProt P05067); test: Thioflavin T fluorescence, inhibition of Aβ aggregation; type: biochemical; details: Aβ 250 μM, compound:Aβ molar ratio 1:1; FIG. 1
T1 construct: thioflavin T fluorescence experiments performed with Aβ1-40
T1 sequence (P05067 672-711): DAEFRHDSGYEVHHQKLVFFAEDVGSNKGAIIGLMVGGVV
Protocol: FIG. 1 illustrates the results of thioflavin T fluorescence experiments performed with Aβ1-40 showing the effects of IPAM as compared with melatonin and IPA.
The ThT was performed as previously described. Briefly, 5 μl were obtained from each sample after incubation and added to 2 ml of a glycine-NaOH buffer (50 mM), pH 9.2, containing 2 μM thioflavin T. Fluorescence intensities were measured at excitation 435 nm and emission 485 nm in a Hitachi F-2000 fluorescence spectrophotometer. A time scan of fluorescence intensity was performed and three measurements were obtained after the decay reached a plateau at 200, 220, and 240 seconds. These measurements were averaged after subtracting the background fluorescence of 2.0 μM thioflavin T in the blank buffers. […] All measurements were done in triplicate. Aqueous stock solutions of 1 mM of each compound were made by first preparing a 10 mM suspension in 1 N HCl and then by completely dissolving them in 100 mM phosphate buffered saline at pH 7.4 (1:10, v:v) and re-adjusting the pH to 7.4 with 1 N NaOH. Solutions of Aβ were prepared by dissolving 2.2 mg of the peptide in 1 ml of 50 mM bicarbonate buffer at pH 9.6. 50 μl aliquots of this solution were lyophilized and stored at −80° C. until needed. Working stock solutions of the peptide (500 μM concentration) were prepared in HPLC-grade water immediately prior to the experiments. In the experimental samples, Aβ was further diluted 1:1 with phosphate buffered saline (pH 7.4, 100 mM) to which each of the compounds or equivalent volumes of buffer solution were added. The final concentration of Aβ in each sample was 250 μM and the compound:Aβ molar ratios were 1:1.

rotifers (Philodina) [4] = test: Inhibition of the aging process in a rotifer model (life span); type: in vivo
Description: Free-radicals are involved in the aging process and since IPAM is a powerful cytoprotective agent, we tested IPAM for its property to inhibit the aging process. […] (*=p<0.05, statistically significant difference to control).

[5] = in vivo; cited from earlier work
[6] = series against Control (0.1% DMSO), ascorbate, trolox 100 micromolar
[7] = 30 minutes after 0.5 mg/kg i.p. in phosphate buffered saline
[8] = 60 minutes after 0.5 mg/kg i.p. in phosphate buffered saline
[9] = 120 minutes after 0.5 mg/kg i.p. in phosphate buffered saline

Structure (SMILES)	Increase in % of control (Medium Life Span) (rotifers (Philodina) [1]; control = 0.1% DMSO)	Maximum Life Span (rotifers (Philodina) [1]; [6])	indole levels in brain tissue [2, 7]	indole levels in brain tissue [2, 8]	indole levels in brain tissue [2, 9]	IC50 [3]	inhibition of Aβ aggregation (Aβ1-40)	Increase in % of control (maximum life span) (rotifers (Philodina) [4]; 0.5 μM)	Increase in % of control (median life span) (rotifers (Philodina) [4]; 0.5 μM)	Maximum life span in days (90% survival) (rotifers (Philodina) [4]; 0.5 μM, control 27)	Increase in % of control (maximum life span) (rotifers (Philodina) [4]; 5 μM)	Increase in % of control (median life span) (rotifers (Philodina) [4]; 5 μM)	Maximum life span in days (90% survival) (rotifers (Philodina) [4]; 5 μM, control 30)	Increase in % of control (median life span) (rotifers (Philodina) [4]; 50 μM)	Maximum life span in days (90% survival) (rotifers (Philodina) [4]; 50 μM, control 30)	half-life [5]	Increase in % of control (maximum life span) (rotifers (Philodina) [4]; 50 μM)	other results
O=C1O[C@H]([C@@H](O)CO)C(O)=C1O [Ascorbate]	−1%	28																Increase in % of control (maximum life span) (rotifers (Philodina) [1]; control = 0.1% DMSO): −7%; Maximum Life Span (rotifers (Philodina) [1]; series against Ascorbate in 0.1% DMSO, ascorbate 100 micromolar, indoles 5 micromolar): 30
O=C(O)CCc1c[nH]c2ccccc12 [IPA, indole-3-propionic acid]			160 + 11 pg/mg protein	210 + 18 pg/mg protein	230 + 25 pg/mg protein	7460 nM	potent inhibitor of Aβ aggregation	+37%	+28%	39 days	+37%	+30%	41 days	−3%	30 days	4.5 h		
NC(=O)CCc1c[nH]c2ccccc12 [IPAM, indole-3-propionamide]			480 + 46 pg/mg protein	520 + 50 pg/mg protein	570 + 69 pg/mg protein	180 nM	potent inhibitor of Aβ aggregation	+55%	+31%	42 days	+50%	+40%	45 days	+15%	34 days		+13%	toxicity in rotifers (rotifers (Philodina) [4]; in vivo): devoid of toxicity
COc1ccc2[nH]cc(CCNC(C)=O)c2c1 [Melatonin]			450 + 30 pg/mg protein	200 + 15 pg/mg protein	73 + 6 pg/mg protein	1400 nM	potent inhibitor of Aβ aggregation	+30%	+19%	35 days	+40%	+29%	42 days	+12%	31 days	0.333 h	+3%	
Cc1c(C)c2c(c(C)c1O)CCC(C)(C(=O)O)O2 (stereo not drawn) [Trolox]	+8%	30																Maximum Life Span (rotifers (Philodina) [1]; series against Trolox in 0.1% DMSO, trolox 100 micromolar, indoles 5 micromolar): 34
